For 16 molecules, IC50 results are on record in patent publication US11498928B2, “Macrocyclic spiroethers as Mcl-1 inhibitors” (ASCENTAGE PHARMA (SUZHOU) CO., LTD., priority 2019, dated 2022).

As usually defined, the pIC50 is the negative decadic logarithm of the IC50, by convention in mol/L.

pIC50: −log10 of the molar value.

The subject of assay [1] is NCI-H929 cells. Kind of assay: Cell viability assay (NCI-H929 cells), CCK-8. The class given is cell-based. The settings on record: 5% FBS. Put shortly:
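NCI-H929 cells from ATCC were seeded at 20000 cells/well in 95 μL of culture medium in 96-well plates and grown for 4 hrs. Compounds, serially diluted in DMSO and further diluted in medium, were added as 5 μL, and cells were incubated for 24 hrs at 37° C. with 5% CO2. Viability was measured with CCK-8.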

Assay [2] concerns OPM-2 cells. The experiment in a line: Cell viability assay (OPM-2 cells), CCK-8. The class given is cell-based. The settings on record: 5% FBS. Put shortly: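 OPM-2 myeloma cells (20000/well) exposed to serially diluted compound for 24 h at 37 °C, 5% CO2, then incubated 4 h with CCK-8 and read at 450 nm. Readings normalized to vehicle; IC50 from nonlinear regression.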
The target of assay [3] is T1, Mcl-1 protein (residues 171-323) (Homo sapiens, UniProt Q07820).
T1 construct: Tag-free Mcl-1 protein (residues 171-323) was used in the FP assay
The experiment in a line: Inhibition of Mcl-1 by fluorescence polarization (FP) competitive binding assay with FAM-Bid tracer. Particulars: 2 nM FAM-Bid, 20 nM Mcl-1, 30 min. In short, it runs like this:
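Tag-free Mcl-1 (20 nM) with 2 nM FAM-Bid peptide in PBS, 0.01% BGG, 0.01% Triton X-100, 5% DMSO, 30 min at room temperature. FP read at Ex 485/Em 528 nm. IC50 from 10-point curves normalised to DMSO and no-protein controls.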

T1 sequence (Q07820 171-323): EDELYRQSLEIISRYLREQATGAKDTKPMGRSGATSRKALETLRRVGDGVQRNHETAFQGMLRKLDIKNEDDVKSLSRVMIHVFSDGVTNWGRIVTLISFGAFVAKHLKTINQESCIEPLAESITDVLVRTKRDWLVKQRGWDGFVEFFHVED

Turning to `CO[C@H]1C2=CC(C2)CC(C)S(=O)(=O)NC(=O)c2ccc3c(c2)N(C[C@@H]2CC[C@H]21)C[C@@]1(CCCc2cc(Cl)ccc21)CO3` (single isomer, unassigned) [11 (Isomer 2)], the pIC50 in assay [1] (24 h) is 5.65; in assay [2] (24 h), 5.41; in assay [3], 8.22.

`CO[C@H]1C2=C[C@@H](C2)[C@H](C)CS(=O)(=O)NC(=O)c2ccc3c(c2)N(C[C@@H]2CC[C@H]21)C[C@@]1(CCCc2c1ccc(Cl)c2F)CS3` (single isomer, unassigned) [24 (isomer 1)]: the pIC50 in assay [1] (Homo sapiens, NCI-H929, 24 h) was 6.18; in assay [2] (Homo sapiens, OPM-2, 24 h), 6.17; in assay [3], 8.19.

As for `CO[C@H]1C2=CC(C)(C2)[C@H](C)CS(=O)(=O)NC(=O)c2ccc3c(c2)N(C[C@@H]2CC[C@H]21)C[C@@]1(CCCc2cc(Cl)ccc21)CO3` (single isomer, unassigned) [Cpd. No. 18 (Isomer 1)], the negative-log IC50 (pIC50) is 7.43 in assay [1] (24 h), 7.60 in assay [2] (24 h) and 8.38 in assay [3].

On to `CO[C@H]1C2=C[C@H](C2)[C@H](C)N(C[C@@H]2CCCO2)S(=O)(=O)NC(=O)c2ccc3c(c2)N(C[C@@H]2CC[C@H]21)C[C@@]1(CCCc2cc(Cl)ccc21)CO3` (single isomer, unassigned) [30 (isomer 1)], for which the pIC50 in assay [1] (Homo sapiens, NCI-H929, 24 h) was 5.54; in assay [2] (Homo sapiens, OPM-2, 24 h) it was 5.64; in assay [3], 8.21.

As for `CO[C@H]1C2=CC(C2)[C@H](C)N(C)S(=O)(=O)NC(=O)c2ccc3c(c2)N(C[C@@H]2CC[C@H]21)C[C@@]1(CCCc2cc(Cl)ccc21)CO3` (single isomer, unassigned) [26 (isomer 2)], the pIC50 in assay [1] (24 h) is 5.65; in assay [2] (24 h), 5.65; in assay [3], 8.48.

Turning to `CO[C@@H]1C2=CC(CCS(=O)(=O)NC(=O)c3ccc4c(c3)N(C[C@@H]3CC[C@H]31)C[C@@]1(CCCc3cc(Cl)ccc31)CO4)C2` (single isomer, unassigned) [Cpd. No. 4 (Isomer 1)], the pIC50 in assay [1] (24 h) is 5.38; in assay [2] (24 h), 5.24; in assay [3], 8.08.

For `CO[C@@H]1C2CC(C2)[C@H](C)N(C)S(=O)(=O)NC(=O)c2ccc3c(c2)N(C[C@@H]2CC[C@H]21)C[C@@]1(CCCc2cc(Cl)ccc21)CO3` [Cpd. No. 29, (1S,12′S,16′R,16a′R,18a′R)-6-chloro-16′-methoxy-11′,12′-dimethyl-3,4,12′,13′,14′,15′,16′,16a′,17′,18′,18a′,19′-dodecahydro-1′H,2H,3′H,11′H-spiro[naphthalene-1,2′-[5,7]etheno[13,15]methanocyclobuta[i][1,4]oxazepino[3,4-f][1]thia[2,7,16]triazacyclohexadecin]-8′(9′H)-one 10′,10′-dioxide], the pIC50 in assay [1] (Homo sapiens, NCI-H929, 24 h) was 5.26; in assay [2] (Homo sapiens, OPM-2, 24 h), 5.28; in assay [3] it was 7.80.

As to `CO[C@@H]1C2=CC(C2)[C@H](C)N(C)S(=O)(=O)NC(=O)c2ccc3c(c2)N(C[C@@H]2CC[C@H]21)C[C@@]1(CCCc2cc(Cl)ccc21)CO3` (single isomer, unassigned) [27 (isomer 1)], the pIC50 was 5.80 in assay [1] (24 h), 5.84 in assay [2] (24 h) and 7.89 in assay [3].

Regarding `C[C@@H]1[C@@H](C)S(=O)(=O)NC(=O)c2ccc3c(c2)N(C[C@@H]2CC[C@H]2[C@@H](N(C)C)C2=C[C@H]1C2)C[C@@]1(CCCc2c1ccc(Cl)c2F)CO3` [compound 57, (1S,11′R,12′S,13′R,16′R,16a′R,18a′R)-6-chloro-16′-(dimethylamino)-5-fluoro-11′,12′-dimethyl-3,4,12′,13′,16′,16a′,17′,18′,18a′,19′-decahydro-1′H,2H,3′H,11′H-spiro[naphthalene-1,2′-[5,7]etheno[13,15]methanocyclobuta[i][1,4]oxazepino[3,4-f][1]thia[2,7]diazacyclohexadecin]-8′(9′H)-one 10′,10′-dioxide], the pIC50 was 7.37 in assay [1] (Homo sapiens, NCI-H929, 24 h); 7.44 in assay [2] (Homo sapiens, OPM-2, 24 h); 7.89 in assay [3].

With `CO[C@@]1(CN2CCN3CCOC[C@@H]3C2)C2=C[C@@H](C2)[C@H](C)[C@@H](C)S(=O)(=O)NC(=O)c2ccc3c(c2)N(C[C@@H]2CC[C@H]21)C[C@@]1(CCCc2c1ccc(Cl)c2F)CO3` [compound 51, (1S,11′R,12′S,13′R,16′R,16a′R,18a′R,E)-6-chloro-5-fluoro-16′-(((S)-hexahydropyrazino[2,1-c][1,4]oxazin-8(1H)-yl)methyl)-16′-methoxy-11′,12′-dimethyl-3,4,12′,13′,16′,16a′,17′,18′,18a′,19′-decahydro-1′H,2H,3′H,11′H-spiro[naphthalene-1,2′-[5,7]etheno[13,15]methanocyclobuta[i][1,4]oxazepino[3,4-f][1]thia[2,7]diazacyclohexadecin]-8′(9′H)-one 10′,10′-dioxide], the pIC50 in assay [1] (Homo sapiens, NCI-H929, 24 h) is 8.22; in assay [2] (Homo sapiens, OPM-2, 24 h), 7.85; in assay [3], 8.13.

For the molecule `C[C@@H]1[C@@H](C)S(=O)(=O)NC(=O)c2ccc3c(c2)N(C[C@@H]2CC[C@H]2[C@@H](OCCN2C[C@@H](C)N(C)[C@@H](C)C2)C2=C[C@H]1C2)C[C@@]1(CCCc2c1ccc(Cl)c2F)CO3` [compound 84, (1S,11′R,12′S,13′R,16′R,16a′R,18a′R,E)-6-chloro-5-fluoro-11′,12′-dimethyl-16′-(2-((3 S,5R)-3,4,5-trimethylpiperazin-1-yl)ethoxy)-3,4,12′,13′,16′,16a′,17′,18′,18a′,19′-decahydro-1′H,2H,3′H, 11′H-spiro[naphthalene-1,2′-[5,7]etheno[13,15]methanocyclobuta[i][1,4]oxazepino[3,4-f][1]thia[2,7]diazacyclohexadecin]-8′(9′H)-one 10′,10′-dioxide], the pIC50 in assay [1] (Homo sapiens, NCI-H929, 24 h) was 7.12; in assay [2] (Homo sapiens, OPM-2, 24 h), 7.19; in assay [3], 7.70.

Turning to `CO[C@H]1C2=C[C@@H](C2)[C@H](C)[C@@H](C)S(=O)(=O)NC(=O)c2ccc3c(c2)N(C[C@@H]2CC[C@H]21)C[C@@]1(CCCc2c1ccc(Cl)c2F)CS3` (single isomer, unassigned) [22 (isomer 1)], the pIC50 in assay [1] (Homo sapiens, NCI-H929, 24 h) was 6.15; in assay [2] (Homo sapiens, OPM-2, 24 h), 6.25; in assay [3] it was 7.89.

`C[C@@H]1[C@@H](C)S(=O)(=O)NC(=O)c2ccc3c(c2)N(C[C@@H]2CC[C@H]2[C@@H](OCCN2CCCC2)C2=C[C@H]1C2)C[C@@]1(CCCc2c1ccc(Cl)c2F)CO3` [compound 66, (1S,11′R,12′S,13′R,16′R,16a′R,18a′R,E)-6-chloro-5-fluoro-11′,12′-dimethyl-16′-(2-(pyrrolidin-1-yl)ethoxy)-3,4,12′,13′,16′,16a′,17′,18′,18a′,19′-decahydro-1′H,2H,3′H,11′H-spiro[naphthalene-1,2′-[5,7]etheno[13,15]methanocyclobuta[i][1,4]oxazepino[3,4-f][1]thia[2,7]diazacyclohexadecin]-8′(9′H)-one 10′,10′-dioxide]: the pIC50 was 8.11 in assay [1] (Homo sapiens, NCI-H929, 24 h); 7.51 in assay [2] (Homo sapiens, OPM-2, 24 h); 7.82 in assay [3].

As for `CC(=O)N(C)CCO[C@H]1C2=C[C@@H](C2)[C@H](C)[C@@H](C)S(=O)(=O)NC(=O)c2ccc3c(c2)N(C[C@@H]2CC[C@H]21)C[C@@]1(CCCc2c1ccc(Cl)c2F)CO3` [compound 80, N-(2-(((1S,11′R,12′S,13′R,16′R,16a′R,18a′R,E)-6-chloro-5-fluoro-11′,12′-dimethyl-10′,10′-dioxido-8′-oxo-3,4,8′,9′,12′,13′,16′,16a′,17′,18′,18a′,19′-dodecahydro-1′H,2H,3′H, 11′H-spiro[naphthalene-1,2′-[5,7]etheno[13,15]methanocyclobuta[i][1,4]oxazepino[3,4-f][1]thia[2,7]diazacyclohexadecin]-16′-yl)oxy)ethyl)-N-methylacetamide], the pIC50 in assay [1] (Homo sapiens, NCI-H929, 24 h) is 7.21; in assay [2] (Homo sapiens, OPM-2, 24 h), 6.80; in assay [3] it was 7.89.

As for `C[C@@H]1[C@@H](C)S(=O)(=O)NC(=O)c2ccc3c(c2)N(C[C@@H]2CC[C@H]2[C@@H](OCCN2CCN(C4CCOCC4)CC2)C2=C[C@H]1C2)C[C@@]1(CCCc2c1ccc(Cl)c2F)CO3` [compound 89, (1S,11′R,12′S,13′R,16′R,16a′R,18a′R)-6-chloro-5-fluoro-11′,12′-dimethyl-16′-(2-(4-(tetrahydro-2H-pyran-4-yl)piperazin-1-yl)ethoxy)-3,4,12′,13′,16′,16a′,17′,18′,18a′,19′-decahydro-1′H,2H,3′H, 11′H-spiro[naphthalene-1,2′-[5,7]etheno[13,15]methanocyclobuta[i][1,4]oxazepino[3,4-f][1]thia[2,7]diazacyclohexadecin]-8′(9′H)-one 10′,10′-dioxide], the pIC50 was 8.12 in assay [1] (Homo sapiens, NCI-H929, 24 h); 7.28 in assay [2] (Homo sapiens, OPM-2, 24 h); 7.96 in assay [3].

For the molecule `C[C@@H]1[C@@H](C)S(=O)(=O)NC(=O)c2ccc3c(c2)N(C[C@@H]2CC[C@H]2[C@](O)(CN2CCN4CCOC[C@H]4C2)C2=C[C@H]1C2)C[C@@]1(CCCc2c1ccc(Cl)c2F)CO3` [compound 48, (1S,11′R,12′S,13′R,16′R,16a′R,18a′R,E)-6-chloro-5-fluoro-16′-(((R)-hexahydropyrazino[2,1-c][1,4]oxazin-8(1H)-yl)methyl)-16′-hydroxy-11′,12′-dimethyl-3,4,12,′13′,16′,16a′,17′,18′,18a′,19′-decahydro-1′H,2H,3′H,11′H-spiro[naphthalene-1,2′-[5,7]etheno[13,15]methanocyclobuta[i][1,4]oxazepino[3,4-f][1]thia[2,7]diazacyclohexadecin]-8′(9′H)-one 10′,10′-dioxide], the pIC50 is 7.55 in assay [1] (Homo sapiens, NCI-H929, 24 h); 7.16 in assay [2] (Homo sapiens, OPM-2, 24 h); 7.74 in assay [3].
